Measurements: ChEMBL document CHEMBL2385074, “Structure-activity relationship analysis of bufadienolide-induced in vitro growth inhibitory effects on mouse and human cancer cells” (J Nat Prod, 2013)
Activity calls are given as the source filed them.

Columns and labels:
Type in all cases: functional, cell-based
CT26.WT = experiment: Cytotoxicity against mouse CT26.WT cells at <= 10 uM after 3 days by MTT assay
Hs 683 = experiment: Cytotoxicity against human Hs683 cells at <= 10 uM after 3 days by MTT assay
A549 = experiment: Cytotoxicity against human A549 cells at <= 10 uM after 3 days by MTT assay
PC-3 = experiment: Cytotoxicity against human PC3 cells at <= 10 uM after 3 days by MTT assay
MCF7 = experiment: Cytotoxicity against human MCF7 cells at <= 10 uM after 3 days by MTT assay
SK-MEL-28 = experiment: Cytotoxicity against human SK-MEL-28 cells at <= 10 uM after 3 days by MTT assay
U-373MG ATCC = experiment: Cytotoxicity against human U373 cells at <= 10 uM after 3 days by MTT assay
B16-F10 = experiment: Cytotoxicity against mouse B16F10 cells at <= 10 uM after 3 days by MTT assay

Measured: Activity

C[C@]12CC[C@H](OC(c3ccccc3)c3ccccc3)C[C@@]1(O)CC[C@@H]1[C@@H]2CC[C@]2(C)[C@@H](C(=O)OC(c3ccccc3)c3ccccc3)CC[C@]12O
inactive: all assays above

COC(=O)[C@H]1CC[C@]2(O)[C@@H]3CC[C@@H]4C[C@@H](OC(C)=O)CC[C@]4(C)[C@H]3[C@H](OC(C)=O)[C@@H](OC(C)=O)[C@]12C
inactive: all assays above

COC(=O)[C@H]1CC[C@]2(O)[C@@H]3CC[C@@H]4C[C@@H](OC(C)=O)CC[C@]4(C)[C@H]3[C@H](OC(C)=O)C(=O)[C@]12C
inactive: all assays above
